Data taken from US9828366B2, “Bicyclic derivatives and pharmaceutical composition including the same” (HANMI PHARM. CO., LTD., priority 2014, dated 2017).

Key:
hSGLT2 = target: T1, hSGLT2 (Homo sapiens, UniProt P31639); experiment: [14C]-AMG uptake assay in HEK293-hSGLT2 cells; assay type: cell-based; details: HEK293-hSGLT2 stable cell line
T1 construct: FLAG; expressed in transfected cells
T1 sequence (P31639 1-672): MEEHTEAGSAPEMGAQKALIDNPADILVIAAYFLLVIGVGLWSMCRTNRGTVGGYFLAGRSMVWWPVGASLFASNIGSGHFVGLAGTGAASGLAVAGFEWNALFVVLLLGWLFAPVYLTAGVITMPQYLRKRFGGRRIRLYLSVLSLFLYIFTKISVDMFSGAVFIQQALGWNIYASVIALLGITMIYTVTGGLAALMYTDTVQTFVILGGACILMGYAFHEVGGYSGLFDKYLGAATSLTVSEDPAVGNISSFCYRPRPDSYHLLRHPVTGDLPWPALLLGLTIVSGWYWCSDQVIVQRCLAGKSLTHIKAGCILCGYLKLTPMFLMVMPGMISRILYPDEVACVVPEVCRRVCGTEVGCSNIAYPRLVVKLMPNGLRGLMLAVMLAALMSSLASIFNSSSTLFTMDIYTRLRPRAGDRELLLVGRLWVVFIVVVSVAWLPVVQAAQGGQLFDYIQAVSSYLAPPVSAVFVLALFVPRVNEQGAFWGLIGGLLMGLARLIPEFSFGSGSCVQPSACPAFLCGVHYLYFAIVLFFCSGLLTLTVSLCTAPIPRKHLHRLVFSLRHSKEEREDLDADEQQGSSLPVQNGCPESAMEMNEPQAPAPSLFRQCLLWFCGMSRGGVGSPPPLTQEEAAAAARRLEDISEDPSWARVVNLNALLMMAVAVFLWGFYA
Protocol: (§1) For the evaluation of the pharmaceutical efficacies of the compounds as a SGLT inhibitor, a glucose uptake assay was conducted by using stable cell lines, i.e., HEK293-hSGLT1 and HEK293-hSGLT2. The stable cell lines were prepared by transfection of human embryonic kidney 293 (HEK293) cell line with pcDNA3.1(+)-FLAG-hSGLT1 and pcDNA3.1(+)-FLAG-hSGLT2 vectors.
(§2) The cells were seeded in a 96-well poly-D-lysine (PDL) coated plate at a density of 2.5×10^4 cells/well and cultured in a cell culture incubator for one day at 37° C., 5% CO2. Then, the cells were washed once with 1× assay buffer (140 mM NaCl, 5 mM KCl, 2.5 mM CaCl2, 1 mM MgSO4.7H2O, 1 mM KH2PO4, 10 mM HEPES) and pre-incubated in a cell culture incubator for 30 minutes with 1× assay buffer at 37° C., 5% CO2. Each compound obtained in the Examples was 10-fold diluted with 1× assay buffer. The diluted compounds were added to the plate at various concentrations and then cultured in a cell culture incubator for 1 hour at 37° C., 5% CO2.
(§3) Radioactive [^14C]-alpha-methyl-D-glucopyranoside (Cat# NEC659250UC, Perkin Elmer) was diluted with 1× assay buffer at a concentration of 0.2 μCi. The diluted [^14C]-AMG was added to all the wells in plate in the same amount, and the cells were cultured in a cell culture incubator for 2 hours at 37° C., 5% CO2. The cells were washed three times with cold Dulbecco's Phosphate buffer saline (DPBS) and then lysed with 0.2 N NaOH for 10 minutes at room temperature with shaking. After addition of MicroScint 20 fluid, the cells were allowed to shake for 15 minutes at room temperature, and then the activity of [^14C]AMG was quantified on a β-scintillation counter. IC50 of each of the compounds was determined by GraphPad Prism 4.0 software.

hSGLT1 = target: T2, hSGLT1 (Homo sapiens, UniProt P13866); experiment: [14C]-AMG uptake assay in HEK293-hSGLT1 cells; assay type: cell-based; details: HEK293-hSGLT1 stable cell line
T2 construct: FLAG; expressed in transfected cells
T2 sequence (P13866 1-664): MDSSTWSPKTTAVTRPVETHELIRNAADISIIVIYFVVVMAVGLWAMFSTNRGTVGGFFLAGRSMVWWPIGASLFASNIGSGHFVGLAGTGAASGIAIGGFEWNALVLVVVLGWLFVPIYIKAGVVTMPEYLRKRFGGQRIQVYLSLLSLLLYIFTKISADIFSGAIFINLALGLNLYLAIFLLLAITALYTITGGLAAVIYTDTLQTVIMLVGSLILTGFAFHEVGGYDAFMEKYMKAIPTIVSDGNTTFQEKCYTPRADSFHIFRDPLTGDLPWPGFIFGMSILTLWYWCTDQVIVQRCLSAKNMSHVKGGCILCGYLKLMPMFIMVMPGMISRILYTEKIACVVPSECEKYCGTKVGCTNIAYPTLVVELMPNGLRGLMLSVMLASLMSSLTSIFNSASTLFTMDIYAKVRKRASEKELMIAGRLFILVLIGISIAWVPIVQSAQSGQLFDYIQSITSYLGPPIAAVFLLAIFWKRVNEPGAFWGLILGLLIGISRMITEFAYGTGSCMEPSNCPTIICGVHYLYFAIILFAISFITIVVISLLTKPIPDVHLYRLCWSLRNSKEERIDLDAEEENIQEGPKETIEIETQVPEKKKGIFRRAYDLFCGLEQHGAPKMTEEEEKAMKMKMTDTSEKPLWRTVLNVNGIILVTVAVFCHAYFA
Protocol: as §1, §2, §3

C57BL/6 male mice = experiment: Urinary glucose excretion test (UGE test); assay type: in vivo; details: 3 mg/kg oral (Examples 13 to 38), 2 g/kg glucose after 30 minutes, urine collected for 24 hours
Protocol: The pharmaceutical efficacies of the compounds prepared in the Examples were investigated by a urinary glucose excretion test using C57BL/6 male mice (8-week-old, prepared and supplied from Orient Chemical Co. Ltd.).
Two mice were used in each group. The mice were fasted for 16 hours, and the compound of each of the Examples [10 mg/kg of the compound of Examples 1 to 12; and 3 mg/kg of the compound of Examples 13 to 38] was dissolved in a vehicle [a mixed solution of 5% 1-methyl-2-pyrrolidinone, 20% PEG, and 75% 20 mM sodium diphosphate], and orally administered to the mice. After 30 minutes, 2 g/kg of glucose was orally administered to the mice in all the groups. Thereafter, the mice were immediately put into a metabolic cage, and urine was collected for 24 hours. The mice were freely fed an hour after the administration of glucose.
The results obtained from the test, that is, the results obtained by measuring urinary glucose excretion in the C57BL/6 male mice according to the compounds of the Examples, are listed in Table 5.

SMILES | IC50 (hSGLT2) [µM] | IC50 (hSGLT1) [µM] | UGE (C57BL/6 male mice) [mg/20 g/24 hr]
OC[C@H]1O[C@@H](c2cc3c(c(Cc4ccc(Cl)cc4)c2)CCC3)[C@H](O)[C@@H](O)[C@@H]1O [Example 40, (2S,3R,4R,5S,6R)-2-(7-(4-chlorobenzyl)-2,3-dihydro-1H-inden-5-yl)-6-(hydroxymethyl)tetrahydro-2H-pyran-3,4,5-triol] | 0.0288 | 0.21 | 
OC[C@H]1O[C@@H](c2cc3c(c(Cc4ccc(OCC(F)(F)F)cc4)c2)CCC3)[C@H](O)[C@@H](O)[C@@H]1O [Example 34, (2R,3S,4R,5R,6S)-2-(hydroxymethyl)-6-(7-(4-(2,2,2-trifluoroethoxy)benzyl)-2,3-dihydro-1H-inden-5-yl)tetrahydro-2H-pyran-3,4,5-triol] | 0.0135 | 0.553 | 
OC[C@H]1O[C@@H](c2cc3c(c(Cc4ccc(-c5ccc(F)cc5)s4)c2)CCC3)[C@H](O)[C@@H](O)[C@@H]1O [Example 36, (2S,3R,4R,5S,6R)-2-(7-((5-(4-fluorophenyl)thiophen-2-yl)methyl)-2,3-dihydro-1H-inden-5-yl)-6-(hydroxymethyl)tetrahydro-2H-pyran-3,4,5-triol] | 0.009 | 0.0849 | 
OC[C@H]1O[C@@H](c2cc3c(c(Cc4cc5ccccc5s4)c2)CCC3)[C@H](O)[C@@H](O)[C@@H]1O [Example 37, (2S,3R,4R,5S,6R)-2-(7-(benzo[b]thiophen-2-ylmethyl)-2,3-dihydro-1H-inden-5-yl)-6-(hydroxymethyl)tetrahydro-2H-pyran-3,4,5-triol] | 0.009 | 0.0198 | 14.5
Cc1ccc(Cc2cc([C@@H]3O[C@H](CO)[C@@H](O)[C@H](O)[C@H]3O)cc3c2CCC3)cc1 [Example 15, (2R,3S,4R,5R,6S)-2-(hydroxymethyl)-6-(7-(4-methylbenzyl)-2,3-dihydro-1H-inden-5-yl)tetrahydro-2H-pyran-3,4,5-triol] | 0.0096 | 0.0077 | 8.1
OC[C@H]1O[C@@H](c2cc3c(c(Cc4ccc(OC(F)(F)F)cc4)c2)CCC3)[C@H](O)[C@@H](O)[C@@H]1O [Example 22, (2R,3S,4R,5R,6S)-2-(hydroxymethyl)-6-(7-(4-(trifluoromethoxy)benzyl)-2,3-dihydro-1H-inden-5-yl)tetrahydro-2H-pyran-3,4,5-triol] | 0.0092 | 0.511 | 9.6
OC[C@H]1O[C@@H](c2cc3c(c(Cc4ccc(C(F)(F)F)cc4)c2)CCC3)[C@H](O)[C@@H](O)[C@@H]1O [Example 24, (2R,3S,4R,5R,6S)-2-(hydroxymethyl)-6-(7-(4-(trifluoromethyl)benzyl)-2,3-dihydro-1H-inden-5-yl)tetrahydro-2H-pyran-3,4,5-triol] | 0.0068 | 0.267 | 
CC(C)(C)c1ccc(Cc2cc([C@@H]3O[C@H](CO)[C@@H](O)[C@H](O)[C@H]3O)cc3c2CCC3)cc1 [Example 31, (2S,3R,4R,5S,6R)-2-(7-(4-(tert-butyl)benzyl)-2,3-dihydro-1H-inden-5-yl)-6-(hydroxymethyl)tetrahydro-2H-pyran-3,4,5-triol] | 0.0058 | 0.178 | 

Now from value to compound, other results behind:

IC50 (hSGLT2) [µM] | IC50 (hSGLT1) [µM] | SMILES | UGE (C57BL/6 male mice) [mg/20 g/24 hr]
0.0035 | 0.0552 | OC[C@H]1O[C@@H](c2cc3c(c(Cc4ccc5c(c4)OCCO5)c2)CCC3)[C@H](O)[C@@H](O)[C@@H]1O [Example 30, (2S,3R,4R,5S,6R)-2-(7-((2,3-dihydrobenzo[1,4]dioxin-6-yl)methyl)-2,3-dihydro-1H-inden-5-yl)-6-(hydroxymethyl)tetrahydro-2H-pyran-3,4,5-triol] | 7.2
0.0058 | 0.0249 | OC[C@H]1O[C@@H](c2cc3c(c(Cc4ccc(C5CC5)cc4)c2)CCC3)[C@H](O)[C@@H](O)[C@@H]1O [Example 38, (2S,3R,4R,5S,6R)-2-(7-(4-cyclopropylbenzyl)-2,3-dihydro-1H-inden-5-yl)-6-(hydroxymethyl)tetrahydro-2H-pyran-3,4,5-triol] | 14.8
0.0056 | 0.0546 | CCc1ccc(Cc2cc([C@@H]3O[C@H](CO)[C@@H](O)[C@H](O)[C@H]3O)cc3c2CCC3)cc1 [Example 16, (2S,3R,4R,5S,6R)-2-(7-(4-ethylbenzyl)-2,3-dihydro-1H-inden-5-yl)-6-(hydroxymethyl)tetrahydro-2H-pyran-3,4,5-triol] | 16.4
0.0045 | 0.0632 | Cc1ccc(Cc2cc([C@@H]3O[C@H](CO)[C@@H](O)[C@H](O)[C@H]3O)cc3c2CCC3)cc1C [Example 32, (2S,3R,4R,5S,6R)-2-(7-(3,4-dimethylbenzyl)-2,3-dihydro-1H-inden-5-yl)-6-(hydroxymethyl)tetrahydro-2H-pyran-3,4,5-triol] | 
0.0035 | 0.0352 | OC[C@H]1O[C@@H](c2cc3c(c(Cc4ccc5c(c4)OCO5)c2)CCC3)[C@H](O)[C@@H](O)[C@@H]1O [Example 29, (2S,3R,4R,5S,6R)-2-(7-(benzo[d][1,3]dioxol-5-ylmethyl)-2,3-dihydro-1H-inden-5-yl)-6-(hydroxymethyl)tetrahydro-2H-pyran-3,4,5-triol] | 
0.004 | 0.0319 | COc1ccc(Cc2cc([C@@H]3O[C@H](CO)[C@@H](O)[C@H](O)[C@H]3O)cc3c2CCC3)cc1 [Example 14, (2R,3S,4R,5R,6S)-2-(hydroxymethyl)-6-(7-(4-methoxybenzyl)-2,3-dihydro-1H-inden-5-yl)tetrahydro-2H-pyran-3,4,5-triol] | 
